Legend:
Assay type in all cases: functional
[1] = system: TK-10; assay: Growth inhibition of human TK10 cells assessed as cell growth at 10^-5 M after 48 hrs by sulforhodamine B assay; conditions: TK-10, 48 h, read-out: Activity
[2] = system: NCI-H460; assay: Growth inhibition of human NCI-H460 cells assessed as cell growth at 10^-5 M after 48 hrs by sulforhodamine B assay; conditions: NCI-H460, 48 h, read-out: Activity
[3] = system: NCI-H226; assay: Growth inhibition of human NCI-H226 cells assessed as cell growth at 10^-5 M after 48 hrs by sulforhodamine B assay; conditions: NCI-H226, 48 h, read-out: Activity
[4] = Growth inhibition of human HOP92 cells assessed as cell growth at 10^-5 M after 48 hrs by sulforhodamine B assay; conditions: HOP-92, 48 h, read-out: Activity
[5] = system: T47D; assay: Growth inhibition of human T47D cells assessed as cell growth at 10^-5 M after 48 hrs by sulforhodamine B assay; conditions: read-out: Activity
[6] = system: RPMI-8226; assay: Growth inhibition of human RPMI8226 cells assessed as cell growth at 10^-5 M after 48 hrs by sulforhodamine B assay; conditions: RPMI-8226, 48 h, read-out: Activity
[7] = Growth inhibition of human UO31 cells assessed as cell growth at 10^-5 M after 48 hrs by sulforhodamine B assay; conditions: UO-31, 48 h, read-out: Activity
[8] = Growth inhibition of human OVCAR8 cells assessed as cell growth at 10^-5 M after 48 hrs by sulforhodamine B assay; conditions: OVCAR-8, 48 h, read-out: Activity
[9] = Growth inhibition of human HCT15 cells assessed as cell growth at 10^-5 M after 48 hrs by sulforhodamine B assay; conditions: HCT-15, 48 h, read-out: Activity
[10] = system: HCT-116; assay: Growth inhibition of human HCT116 cells assessed as cell growth at 10^-5 M after 48 hrs by sulforhodamine B assay; conditions: HCT-116, 48 h, read-out: Activity
[11] = system: MDA-MB-435; assay: Growth inhibition of human MDA-MB-435 cells assessed as cell growth at 10^-5 M after 48 hrs by sulforhodamine B assay; conditions: MDA-MB-435, 48 h, read-out: Activity
[12] = system: HT-29; assay: Growth inhibition of human HT-29 cells assessed as cell growth at 10^-5 M after 48 hrs by sulforhodamine B assay; conditions: HT-29, 48 h, read-out: Activity
[13] = system: HOP-62; assay: Growth inhibition of human HOP62 cells assessed as cell growth at 10^-5 M after 48 hrs by sulforhodamine B assay; conditions: HOP-62, 48 h, read-out: Activity
[14] = system: SK-OV-3; assay: Growth inhibition of human SKOV3 cells assessed as cell growth at 10^-5 M after 48 hrs by sulforhodamine B assay; conditions: SK-OV-3, 48 h, read-out: Activity
[15] = system: PC-3; assay: Growth inhibition of human PC3 cells assessed as cell growth at 10^-5 M after 48 hrs by sulforhodamine B assay; conditions: PC-3, 48 h, read-out: Activity
[16] = system: A549; assay: Growth inhibition of human A549/ATCC cells assessed as cell growth at 10^-5 M after 48 hrs by sulforhodamine B assay; conditions: A549, 48 h, read-out: Activity
[17] = Growth inhibition of human BT549 cells assessed as cell growth at 10^-5 M after 48 hrs by sulforhodamine B assay; conditions: BT-549, 48 h, read-out: Activity
[18] = Growth inhibition of human Hs 578T cells assessed as cell growth at 10^-5 M after 48 hrs by sulforhodamine B assay; conditions: read-out: Activity
[19] = system: SR; assay: Growth inhibition of human SR cells assessed as cell growth at 10^-5 M after 48 hrs by sulforhodamine B assay; conditions: read-out: Activity
[20] = system: NCI-H23; assay: Growth inhibition of human NCI-H23 cells assessed as cell growth at 10^-5 M after 48 hrs by sulforhodamine B assay; conditions: NCI-H23, 48 h, read-out: Activity
[21] = system: SNB-75; assay: Growth inhibition of human SNB75 cells assessed as cell growth at 10^-5 M after 48 hrs by sulforhodamine B assay; conditions: SNB-75, 48 h, read-out: Activity
[22] = Growth inhibition of human RXF393 cells assessed as cell growth at 10^-5 M after 48 hrs by sulforhodamine B assay; conditions: RXF 393, 48 h, read-out: Activity
[23] = system: MDA-MB-231; assay: Growth inhibition of human MDA-MB-231 cells assessed as cell growth at 10^-5 M after 48 hrs by sulforhodamine B assay; conditions: MDA-MB-231, 48 h, read-out: Activity
[24] = system: MCF7; assay: Growth inhibition of human MCF7 cells assessed as cell growth at 10^-5 M after 48 hrs by sulforhodamine B assay; conditions: MCF7, 48 h, read-out: Activity
[25] = Growth inhibition of human UACC62 cells assessed as cell growth at 10^-5 M after 48 hrs by sulforhodamine B assay; conditions: UACC-62, 48 h, read-out: Activity
[26] = system: Malme-3M; assay: Growth inhibition of human MALME-3M cells assessed as cell growth at 10^-5 M after 48 hrs by sulforhodamine B assay; conditions: read-out: Activity
[27] = system: MDA-MB-468; assay: Growth inhibition of human MDA-MB-468 cells assessed as cell growth at 10^-5 M after 48 hrs by sulforhodamine B assay; conditions: MDA-MB-468, 48 h, read-out: Activity
[28] = Growth inhibition of human OVCAR3 cells assessed as cell growth at 10^-5 M after 48 hrs by sulforhodamine B assay; conditions: OVCAR-3, 48 h, read-out: Activity
[29] = Growth inhibition of human OVCAR5 cells assessed as cell growth at 10^-5 M after 48 hrs by sulforhodamine B assay; conditions: OVCAR-5, 48 h, read-out: Activity
[30] = system: ACHN; assay: Growth inhibition of human ACHN cells assessed as cell growth at 10^-5 M after 48 hrs by sulforhodamine B assay; conditions: read-out: Activity
[31] = system: KM12; assay: Growth inhibition of human KM12 cells assessed as cell growth at 10^-5 M after 48 hrs by sulforhodamine B assay; conditions: KM12, 48 h, read-out: Activity
[32] = Growth inhibition of human HCC2998 cells assessed as cell growth at 10^-5 M after 48 hrs by sulforhodamine B assay; conditions: HCC 2998, 48 h, read-out: Activity
[33] = system: SK-MEL-28; assay: Growth inhibition of human SK-MEL-28 cells assessed as cell growth at 10^-5 M after 48 hrs by sulforhodamine B assay; conditions: SK-MEL-28, 48 h, read-out: Activity
[34] = system: COLO 205; assay: Growth inhibition of human COLO205 cells assessed as cell growth at 10^-5 M after 48 hrs by sulforhodamine B assay; conditions: COLO 205, 48 h, read-out: Activity
[35] = system: SN12C; assay: Growth inhibition of human SN12C cells assessed as cell growth at 10^-5 M after 48 hrs by sulforhodamine B assay; conditions: read-out: Activity
[36] = system: NCI-H522; assay: Growth inhibition of human NCI-H522 cells assessed as cell growth at 10^-5 M after 48 hrs by sulforhodamine B assay; conditions: NCI-H522, 48 h, read-out: Activity

| Compound | growth at 10 µM [2] | growth at 10 µM [3] | growth at 10 µM [4] | growth at 10 µM [5] | growth at 10 µM [6] | growth at 10 µM [7] | growth at 10 µM [8] | growth at 10 µM [9] | growth at 10 µM [10] | growth at 10 µM [11] | growth at 10 µM [12] | growth at 10 µM [13] | growth at 10 µM [14] | growth at 10 µM [15] | growth at 10 µM [16] | growth at 10 µM [17] | growth at 10 µM [19] | growth at 10 µM [20] | growth at 10 µM [21] | growth at 10 µM [22] | other results |
| --- | --- | --- | --- | --- | --- | --- | --- | --- | --- | --- | --- | --- | --- | --- | --- | --- | --- | --- | --- | --- | --- |
| Cc1ccc(S(=O)(=O)N2C/C(=C\c3cc(F)cc(F)c3)C(=O)/C(=C/c3cc(F)cc(F)c3)C2)cc1 | -53% | 47% | -51% | -20% | -36% | -92% | -44% | -35% | -94% | -76.6% | -78% | -60% | -26% | -60.3% | 7% | -89% | -21% | -33% | -41.6% | -88% | growth at 10 µM [1]: -58%; growth at 10 µM [18]: 8%; growth at 10 µM [23]: -53%; growth at 10 µM [24]: -75.4%; growth at 10 µM [25]: -96%; growth at 10 µM [26]: -75%; growth at 10 µM [27]: -73%; growth at 10 µM [28]: -84%; growth at 10 µM [29]: -65%; growth at 10 µM [30]: -91.4%; growth at 10 µM [31]: -82%; growth at 10 µM [32]: -89%; growth at 10 µM [33]: -87%; growth at 10 µM [34]: -73%; growth at 10 µM [35]: -86%; growth at 10 µM [36]: -84% |
| Cc1ccc(S(=O)(=O)N2C/C(=C\c3c(Cl)cccc3Cl)C(=O)/C(=C/c3c(Cl)cccc3Cl)C2)cc1 | 83.3% | 98.1% | 73.5% | 94% | 82.9% | 72.5% | 79.6% | 80.7% | 74.2% | 93.5% | 83.7% | 94.5% | 93.7% | 67.3% | 77.1% | 101% | 71.1% | 97.7% | 65.2% | 101% | growth at 10 µM [1]: 115%; growth at 10 µM [18]: 101%; growth at 10 µM [23]: 64.3%; growth at 10 µM [24]: 64.5%; growth at 10 µM [25]: 69.5%; growth at 10 µM [26]: 89%; growth at 10 µM [27]: 90.4%; growth at 10 µM [28]: 84%; growth at 10 µM [29]: 103%; growth at 10 µM [30]: 84.2%; growth at 10 µM [31]: 88.7%; growth at 10 µM [32]: 114%; growth at 10 µM [33]: 101%; growth at 10 µM [34]: 110%; growth at 10 µM [35]: 85.6%; growth at 10 µM [36]: 88.6% |
| O=C1/C(=C/c2ccc(Cl)cc2Cl)CN(S(=O)(=O)c2ccccc2)C/C1=C\c1ccc(Cl)cc1Cl | -60% | -62% | -25% | 7% | -29% | -63% | -9% | -23% | -84% | -48% | -27.5% | -2.25% | 44% | -25% | -43% | -72.8% | -11.6% | -37.6% | -6% | -87% | growth at 10 µM [23]: -52%; growth at 10 µM [24]: 12%; growth at 10 µM [25]: -79%; growth at 10 µM [26]: -21%; growth at 10 µM [27]: -38%; growth at 10 µM [28]: -67%; growth at 10 µM [29]: -12%; growth at 10 µM [30]: -24%; growth at 10 µM [31]: -57.2%; growth at 10 µM [32]: -83%; growth at 10 µM [33]: 27%; growth at 10 µM [34]: -38%; growth at 10 µM [35]: -47%; growth at 10 µM [36]: -51% |

Reference: ChEMBL document CHEMBL3217615, “Novel 3,5-bis(arylidiene)-4-piperidone based monocarbonyl analogs of curcumin: anticancer activity evaluation and mode of action study” (2014)
